Paper PMC8208785, “Therapeutic efficacy of novel memantine nitrate MN‐08 in animal models of Alzheimer’s disease” (Aging Cell, 2021)
Entries after “also recorded” stand apart in the source; their conditions may differ.

Experiments:
[1] = test system: ERK and PI3K/Akt/GSK3β pathway; experiment: Western blotting of p-ERK, p-Akt, p-GSK3β and Bcl-2 in glutamate-challenged CGNs; type: cell-based, rat; conditions: LY294002 incubated with MN‐08
Excerpt: To further characterize the neuroprotection of MN‐08, the level of the key signaling molecules, such as ERK, Akt, and GSK3β, was examined by Western blotting assay. […] Moreover, pre‐treatment with MN‐08 reversed expression of both p‐Akt and p‐GSK3β with the challenge of glutamate. Akt is an important downstream member of PI3K. To further confirm whether the PI3K/Akt pathway was associated with the neuroprotection of MN‐08 against glutamate‐induced excitotoxicity, specific PI3K inhibitor LY294002 was applied and incubated with MN‐08. […] Taken together, MN‐08 might protect against glutamate‐induce cytotoxicity by reversing the dysregulations of ERK pathway and PI3K/Akt/GSK3β pathway.
Western blotting analysis was performed as previously described with minor modifications (Huang, Li, & Nan, 2017). Proteins were extracted from hippocampal tissue and their concentrations determined by the BCA protein assay kit (Fdbio science, Hangzhou, China). The protein (20 μg) was separated on a 12% SDS-PAGE gel and then transferred to PVDF membranes. The membranes were blocked using 5 % nonfat dry milk for 2 h. The protein blots were incubated with the corresponding primary antibodies against p-Akt (#4060, 1:1000, Cell Signaling Technology), Akt (#4685, 1:1000, Cell Signaling Technology), BACE1 (#5606, 1:1000, Cell Signaling Technology), PS1 (#5643, 1:1000, Cell Signaling Technology), p-GSK3β (#5558, 1:1000, Cell Signaling Technology), GSK3β (#12456, 1:1000, Cell Signaling Technology), Bcl-2 (#3498, 1:1000, Cell Signaling Technology), Bax (#5023, 1:1000, Cell Signaling Technology), Cleaved caspase-3 (#9661, 1:1000, Cell Signaling Technology), Caspase-3 (#9662, 1:1000, Cell Signaling Technology), ADAM10 (#14194, 1:1000, Cell Signaling Technology), APP (#ab241592, 1:1000, Abcam), sAPPα (#ab126723, 1:1000, Abcam), NEP (#ab216341, 1:1000, Abcam), Synapsin I (#ab64581, 1:1000, Abcam), Synapsin II (#ab76494, 1:1000, Abcam), NR2A (#ab124913, 1:2000, Abcam), PSD95 (#ab18258, 1:1000, Abcam), Synaptophysin (#ab32127, 1:1000, Abcam), IDE (#ab133561, 1:1000, Abcam), Drebin (#ab178408, 1:1000, Abcam) and Tau-5 (#ab80579, 1:2000, Abcam) overnight at 4°C. After washing 3 times, the membranes were incubated with the respective HRP-conjugated secondary antibody. ECL Western blotting Detection Reagents (Fdbio science, Hangzhou, China) were used to perform Chemiluminescence detection. Quantitative analysis of protein bands was conducted by the Carestream system (Carestream Health, Inc, USA).
CGNs were prepared from the 8-day-old Sprague–Dawley rats as described in our previous publication (Li et al., 2005). Briefly, animals were anesthetized and sacrificed, and their cerebella were collected. Then, the freshly collected cerebella were rinsed in cold Kreb’s buffer-BSA and digested with 0.025 % trypsin incubated in a 37°C for 15 min. The reaction was stopped, and the single cell suspension was obtained through pipetting up and down the sedimentary tissue. CGNs were seeded in basal modified Eagle’s medium (ThermoFisher Scientific, Waltham, MA, USA) supplemented with 10 % fetal bovine serum, 25 mM KCl, 2 mM glutamine and 100 units/mL penicillin/streptomycin at a density of 1.5×10^6 cells/mL. Cytosine arabinoside (10 μM) was added to inhibit the growth of non-neuronal cells at 24 h after seeding. All experiments were carried out after 8 days in vitro. […]

[2] = test system: cerebellar granule neurons (CGNs); experiment: MTT cell viability, glutamate-induced excitotoxicity in CGNs; type: cell-based, rat; conditions: LY294002 incubated with MN‐08
Experimental: Excessive glutamate‐induced excitotoxicity might cause dysfunctions of cellular pathways, subsequently resulting in synaptic dysfunctions and neuronal loss. To evaluate the neuroprotective effects of MN‐08 against excitotoxicity, cerebellar granule neurons (CGNs) were treated with MN‐08 at the concentrations from 1 to 50 µM or memantine from 1 to 10 μM for 2 h, and then exposed to 100 μM glutamate for 24 h. […] Similarly, in APP/PS1 mice, MN‐08 prevented neuronal loss in the hippocampus by upregulating the expression ratio of Bcl‐2/Bax and downregulating the expression ratio of cleaved Caspase‐3 to Caspase‐3 (Figure S6).
CGNs were prepared from the 8-day-old Sprague–Dawley rats as described in our previous publication (Li et al., 2005). Briefly, animals were anesthetized and sacrificed, and their cerebella were collected. […]
Neurotoxicity was assessed using the tetrazolium salt 3-(4,5-dimethylthiazol-2-yl)-2,5- diphenyltetrazolium bromide dye (MTT) assay as previous publication (Luo et al., 2010). […] Cell viability was evaluated by observing colorimetric changes using a CLARIOstar plus Microplate Reader (BMG Labtech, Ortenberg, Germany) at a test wavelength of 570 nm with 655 nm as a reference wavelength. Data were expressed as a percentage of control cultures.

3×Tg‐AD mice = experiment: Golgi staining of dendritic spines and Western blotting of synaptic markers in 3×Tg-AD mice; type: in vivo; conditions: donepezil 1.3 mg/kg
Experimental: Triple transgenic 3×Tg‐AD mice were acquired from Jackson Laboratory and fostered in the Shenzhen Center for Disease Control and Prevention (Shenzhen, China). Eight‐month‐old 3×Tg‐AD mice were categorized into six groups: (1) 3×Tg‐AD +Vehicle group; (2) 3×Tg‐AD +MN‐08 (3 mg/kg) group; (3) 3×Tg‐AD +MN‐08 (6 mg/kg) group; (4) 3×Tg‐AD +MN‐08 (12 mg/kg) group; (5) 3×Tg‐AD +Memantine (Mem, 5 mg/kg) group; (6) 3×Tg‐AD +Donepezil (Done, 1.3 mg/kg, once daily) group; (7) Eight‐month‐old B6129SF2/J mice as a control group. MN‐08 and memantine were given twice daily (Done, once daily) by gastric gavage for 4 months from 8 months of age.
Golgi staining was used to determine hippocampal dendritic spine density by a Rapid Golgi Stain Kit (FD Neurotechnologies, Columbia, MD, USA) according to the manufacturer’s instructions. The brain was removed after the behavioral tests and incubated with impregnation solution in the dark at room temperature for 1 week. Impregnation solution was replaced with solution A and stored in the dark for 3 days. Brain sections (100 μm thickness) were placed on gelatin-coated microscope slides and then immersed in ddH2O. Solution B, Solution C, 80 % ethanol and xylene were used for 10 min, sequentially. The dendritic spines of hippocampal neurons were analyzed and counted in a blinded manner from six sections per animal by light microscopy (Olympus, Tokyo, Japan).
Western blotting analysis was performed as previously described with minor modifications (Huang, Li, & Nan, 2017). Proteins were extracted from hippocampal tissue and their concentrations determined by the BCA protein assay kit (Fdbio science, Hangzhou, China). The protein (20 μg) was separated on a 12% SDS-PAGE gel and then transferred to PVDF membranes. The membranes were blocked using 5 % nonfat dry milk for 2 h. […] Quantitative analysis of protein bands was conducted by the Carestream system (Carestream Health, Inc, USA).

SMILES	effect of LY294002 on upregulation of p‐Akt and p‐GSK3β by MN‐08 [1]	effect of LY294002 on the neuroprotective effects of MN‐08 against glutamate (MTT) [2]	reduction of dendritic spines (hippocampus CA1, Golgi staining) (3×Tg‐AD mice)
O=c1cc(N2CCOCC2)oc2c(-c3ccccc3)cccc12 [LY294002]	significantly abolished	canceled; also recorded: partially abolished	
COc1cc2c(cc1OC)C(=O)C(CC1CCN(Cc3ccccc3)CC1)C2 (stereo not drawn) [donepezil, reference compound]			markedly reversed
